{"source": "patent US5344841A", "about": "“Bis-(hydroxylakylamino)-anthraquinone inhibitors of protein kinase C” (Sphinx Pharmaceuticals Corporation, priority 1992, dated 1994)", "key": {"P388 murine leukemia": {"test_system": "P388 murine leukemia", "assay": "P388 leukemia tumor assay in mice, survival time", "assay_type": "in vivo, mouse", "from_the_text": "P388 Leukemia Tumors. Mice were young adult, pathogen-free, BALA/c×DBA/2 F1 (i.e., CD2F1) females purchased from Charles River Laboratories. The tumor line was the P388 murine leukemia, ascites form, obtained from the National Cancer Institute (NCI) Tumor Repository (Frederick, Md.). The tumor was maintained in the serial passage in mice by periodic intraperitoneal (ip) implantation. For this experiment, 10^6 hemacytometer-counted P388 murine leukemia cells were implanted ip into mice on Day 0. The mice were randomized into one untreated control group of 20 and 15 test groups of six mice each. All drug treatment was delivered ip on the basis of the average body weight of each group. […] Body weights were recorded on Days 1, 5, 9, 11, and 18. Deaths were recorded daily. Dying mice were necropsied, and the presence or absence of ascites or splenomegaly was recorded. Drug effectiveness was assessed on the basis of the survival time. Results were expressed as a percentage of the control survival time (Survival Time=T/C×100%; T=test animals; C=control animals). The criterion for effectiveness was determined by: T/C×100≥125 percent."}, "human neutrophils": {"test_system": "human neutrophils", "assay": "Neutrophil superoxide anion (O2-) release assay, PMA-stimulated", "assay_type": "cell-based", "conditions": "Homo sapiens, Neutrophil, PMA-stimulated O2- production", "procedure": "Neutrophils were isolated form whole blood collected from human volunteers. All reagent materials were obtained from Sigma Chemical Company with the exception of isotonic saline (Travenol Lab., Inc. Deerfield, Ill.) and lymphocyte separation medium (Organon Teknika, Durham, N.C.). Whole blood was drawn and mixed with sodium heparin (final conc. 10 units/ml) to prevent clotting. An equal volume of dextran (3.0%) in isotonic saline was added, mixed, and allowed to settle for 30 min to bind red blood cells (RBC). The supernatant was removed, underlayered with lymphocyte separation medium and centrifuged for 40 min at 400 xg in a centrifuge (Beckman GPR, Norcross, Ga.). […] The washed pellet was resuspended in 10 ml HBSS and placed on ice before counting on a hemacytometer. The neutrophil cell concentration is adjusted to 2×10^6 cells/ml with HBSS before adding 0.8 ml cells to 12×75 mm polypropylene test tubes (Fisher Scientific). Test agents are diluted to determine dose response and added at 10×final concentration at a volume of 0.1 ml/tube in duplicate. […] Tubes are then centrifuged at 900 xg for 10 min, 0.5 ml supernatant is removed and added to 0.5 ml H2 O in a microcuvette. Optical density (OD) of cytochrome c is read in a spectrophotometer (Shimadzu) at 550 nm. The ΔOD of cytochrome c is obtained between PMA-stimulated and non-stimulated tubes, and the dose responses of the test agents are compared to the positive controls (which contain HBSS in place of test agents). PMA stimulates O2^- production which reduces cytochrome c. Reducing cytochrome c increases its absorbance, and the change in OD of cytochrome c is proportional to the amount of O2^- produced by PMA stimulation. Inhibition of the O2^- burst by test compounds of the invention is seen as a reduction in the change in optical density. Inhibition is expressed as IC50 μM and is the amount of test compound that will inhibit fifty percent of the PMA-stimulated respiratory outburst, i.e. O2^- production."}}, "data": [{"smiles": "CCN(CC)CC(O)CNc1ccc(NCC2CO2)c2c1C(=O)c1ccccc1C2=O", "note": "(stereo not drawn) [Compound 1b-1, 1-(3-diethylamino-2-hydroxypropylamino)-4-(2,3-epoxypropylamino)-9, 10-anthracenedione]", "values": [{"measurement": "% T/C p388 Leukemia", "setting": "P388 murine leukemia; 16 mg/kg, Q4D × 3, ip, survival time", "result": 140, "unit": "%"}, {"measurement": "survival time of mice (in words)", "setting": "P388 murine leukemia; all dosages and schedules", "result": "effectively increased the survival time"}, {"measurement": "IC50", "setting": "human neutrophils", "result": "> 25", "unit": "µM"}]}]}
